Series [1] can be described thus: PK (free brain-to-free plasma ratio) (mouse). To be noted: mouse; unbound brain-to-unbound plasma concentration ratio; male CD-1 mice; oral gavage 10 mg/kg; sampling 2-24 hours; read-out: B/P ratio (free). The format is in vivo. The method, then: PK (Free Brain-to-Free Plasma Ratio) (Mouse)
The ability of representative compounds to penetrate the BBB in mice was determined by evaluating the unbound brain-to-unbound plasma (also referred to as free brain-to-free plasma) concentration ratio in male CD-1 mice.
Brain samples were stored at −20±5° C. prior to analysis. Concentrations of test compound in mouse brain homogenate were determined by liquid chromatography tandem mass spectrometry (LC-MS/MS) following protein precipitation with acetonitrile. A 12-point calibration curve, ranging from 0.5 to 10,000 ng/mL, was prepared in duplicate. A solution of 400 μg/mL of test compound in dimethyl sulfoxide (DMSO) was serially diluted (3-fold) in 100% DMSO, and then 2.5 μL of each standard solution was added to 100 μL of naïve male CD-1 mice brain homogenate. To mimic the extraction in the standard curve, 2.5 μL of DMSO was added to all test samples. Both calibration and test brain homogenate samples were spiked with 10 μL of an IS (1 μg/mL of a structural analog). Brain homogenate was generated by adding 0.75 mL of 4:1 water:MeOH to each brain sample followed by homogenization for 1 minute with bead beater tubes a 6 m/s using an MP Fast Prep-24®. Proteins were precipitated from 100 μL of brain homogenate sample by the addition of 300 μL of acetonitrile. […] A 100 μL aliquot of each supernatant was transferred via a 550 μL Personal Pipettor (Apricot Designs, Monrovia, Calif.) to 96-well plates and diluted 1:1 with HPLC grade water. The resulting plates were sealed with aluminum for LC-MS/MS analysis.
Brain-to-plasma ratios were calculated using the concentration of compound measured in the brain divided by the concentration of compound measured in the plasma. Brain-to-plasma ratios were always generated from a single animal and time point. Free brain-to-free plasma ratios were calculated by multiplying the brain-to-plasma ratio by the in vitro brain homogenate free fraction divided by the in vitro plasma free fraction using the following equation: (B/P)*(Bfu/Pfu).

In series [2] the target is BCRP (Homo sapiens (Human), UniProt Q9UNQ0). As to the kind of experiment: BCRP MDCKII permeability assay: efflux ratio. To be noted: dog.
Procedure: BCRP transfected MDCKII cells were cultured and plated according to manufacturer's recommendations. Assay conditions included with and without the BCRP-specific inhibitor, K0143, at a concentration of 0.3 μM to ascertain the contribution of BCRP to the efflux value of the test compound.
(§4) Both positive and negative controls were used to assess functionality of P-gp or BCRP efflux in the assays. […] Final organic concentration in the assay was 1%. All dosing solutions contained 10 μM lucifer yellow to monitor LLC-PK1 or MDCKII cell monolayer integrity.
(§5) For the apical to basolateral determination (A to B), 75 μL of the test article in transport buffer were added to the apical side of the individual transwells and 250 μL of basolateral media, without compound or lucifer yellow, were added to each well. For the basolateral to apical determination (B to A), 250 μL of test article in transport buffer were added to each well and 75 μL transport buffer, without compound or lucifer yellow, were added to each transwell. All tests were performed in triplicate, and each compound was tested for both apical to basolateral and basolateral to apical transport. The plates were incubated for 2 hours on a Lab-Line Instruments Titer Orbital Shaker (VWR, West Chester, Pa.) at 50 rpm and 37° C. with 5% CO2. All culture plates were removed from the incubator and 50 μL of media were removed from the apical and basolateral portion of each well and added to 150 μL of 1 μM labetalol in 2:1 acetonitrile (acetonitrile): H2O, v/v.
(§6) These values were accepted when found to be below 2% for apical to basolateral and 5% basolateral to apical flux across the MDR1-transfected LLC-PK1 or BCRP-transfected MDCKII cell monolayers. The plates were sealed and the contents of each well analyzed by LC-MS/MS. The compound concentrations were determined from the ratio of the peak areas of the compound to the internal standard (labetalol) in comparison to the dosing solution.
(§7) The LC-MS/MS system was comprised of an HTS-PAL autosampler (Leap Technologies, Carrboro, N.C.), an HP1200 HPLC (Agilent, Palo Alto, Calif.), and a MDS Sciex 4000 Q Trap system (Applied Biosystems, Foster City, Calif.). […] The total run time, including re-equilibration, for a single injection was 1.2 minutes. Mass spectrometric detection of the analytes was accomplished using the ion spray positive mode.
(§8) An efflux ratio is calculated from the mean apical to basolateral (A−B) Papp data and basolateral to apical (B−A) Papp data: Efflux ratio=Papp(B−A)/Papp(A−B)
In series [3] the target is full-length FLAG-tagged B-Raf(V600E) (Homo sapiens (Human), UniProt P15056, V600E). Nature of the series: BRAF V600E enzyme assay (TR-FRET competitive displacement of fluorescent tracer). In kind it is binding. To be noted: averaged IC50; 60 min at ambient temperature; 11-point dosing, top dose 10 μM. The text has this:
(§1) A competitive displacement assay was configured for B-Raf that monitors the amount of a fluorescently-tagged “tracer” bound to B-Raf via TR-FRET from an anti-tag Eu-labeled antibody also bound to B-Raf.
(§2) [formula] • where: • Xmax Average Uninhibited Controls • Xmin Average Background
(§3) A 4-parameter logistic model was the fit to the POC data for each compound.
For orientation: Time-resolved FRET reads energy transfer from a long-lived donor to a nearby acceptor.

The target in series [4] is N-terminally GST-tagged B-Raf(V600K) (Homo sapiens, UniProt P15056, V600K). Nature of the series: BRAF V600K enzyme assay (TR-FRET competitive displacement of fluorescent tracer). The format is binding. To be noted: averaged IC50; 60 min at ambient temperature; 11-point dosing, top dose 10 μM.
From the text: as §1, §2, §3

Series [5] deals with P-gp (MDR1) (Homo sapiens (Human), UniProt P08183). Nature of the series: MDR1 LLC-PK1 permeability assay: efflux ratio. To be noted: pig, LLC-PK1.
Procedure: Both LLC-PK1 and MDR1 transfected LLC-PK1 cells were cultured and plated according to manufacturer's recommendations with the exception that the passage media contained only 2% fetal bovine serum to extend passage time out to seven days.
as §4, §5, §6, §7, §8
Series [6] can be described thus: MDR1 LLC-PK1 and BCRP MDCKII permeability assay: permeability coefficient (Papp).

Chain of P-gp (MDR1) (P08183 whole entry, species assumed): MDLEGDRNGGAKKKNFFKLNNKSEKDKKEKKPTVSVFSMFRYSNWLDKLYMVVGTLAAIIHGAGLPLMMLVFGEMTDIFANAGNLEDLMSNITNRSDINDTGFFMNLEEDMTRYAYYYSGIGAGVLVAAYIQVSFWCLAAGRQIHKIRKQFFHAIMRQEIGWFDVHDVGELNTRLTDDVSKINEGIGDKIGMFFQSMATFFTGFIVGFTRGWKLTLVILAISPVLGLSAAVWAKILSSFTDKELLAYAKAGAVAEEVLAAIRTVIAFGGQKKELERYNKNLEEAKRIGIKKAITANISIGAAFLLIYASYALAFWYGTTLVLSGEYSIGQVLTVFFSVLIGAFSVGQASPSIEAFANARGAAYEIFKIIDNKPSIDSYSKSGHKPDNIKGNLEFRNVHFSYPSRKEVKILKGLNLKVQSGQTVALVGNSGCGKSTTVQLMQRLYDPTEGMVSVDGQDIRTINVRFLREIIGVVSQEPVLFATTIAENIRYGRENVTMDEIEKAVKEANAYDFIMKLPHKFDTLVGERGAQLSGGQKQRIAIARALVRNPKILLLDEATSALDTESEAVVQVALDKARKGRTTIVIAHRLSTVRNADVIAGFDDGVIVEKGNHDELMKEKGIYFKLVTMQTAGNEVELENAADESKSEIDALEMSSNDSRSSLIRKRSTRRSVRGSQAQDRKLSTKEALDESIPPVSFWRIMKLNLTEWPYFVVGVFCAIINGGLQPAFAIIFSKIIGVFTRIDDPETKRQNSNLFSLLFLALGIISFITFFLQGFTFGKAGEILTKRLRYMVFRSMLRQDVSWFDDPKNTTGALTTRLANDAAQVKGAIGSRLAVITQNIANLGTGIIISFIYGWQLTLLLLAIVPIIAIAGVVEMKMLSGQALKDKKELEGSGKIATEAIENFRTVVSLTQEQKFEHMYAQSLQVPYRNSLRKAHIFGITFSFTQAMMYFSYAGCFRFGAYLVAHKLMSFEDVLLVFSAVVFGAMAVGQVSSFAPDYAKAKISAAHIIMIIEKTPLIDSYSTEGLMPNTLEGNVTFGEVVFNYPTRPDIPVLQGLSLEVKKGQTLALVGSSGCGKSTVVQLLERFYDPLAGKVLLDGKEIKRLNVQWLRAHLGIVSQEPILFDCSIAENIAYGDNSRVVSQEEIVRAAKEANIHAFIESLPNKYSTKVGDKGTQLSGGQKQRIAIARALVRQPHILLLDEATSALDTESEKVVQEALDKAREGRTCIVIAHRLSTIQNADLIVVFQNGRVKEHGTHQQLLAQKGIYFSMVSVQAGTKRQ
Chain of N-terminally GST-tagged B-Raf(V600K) (P15056 2-766 V600K limits assumed): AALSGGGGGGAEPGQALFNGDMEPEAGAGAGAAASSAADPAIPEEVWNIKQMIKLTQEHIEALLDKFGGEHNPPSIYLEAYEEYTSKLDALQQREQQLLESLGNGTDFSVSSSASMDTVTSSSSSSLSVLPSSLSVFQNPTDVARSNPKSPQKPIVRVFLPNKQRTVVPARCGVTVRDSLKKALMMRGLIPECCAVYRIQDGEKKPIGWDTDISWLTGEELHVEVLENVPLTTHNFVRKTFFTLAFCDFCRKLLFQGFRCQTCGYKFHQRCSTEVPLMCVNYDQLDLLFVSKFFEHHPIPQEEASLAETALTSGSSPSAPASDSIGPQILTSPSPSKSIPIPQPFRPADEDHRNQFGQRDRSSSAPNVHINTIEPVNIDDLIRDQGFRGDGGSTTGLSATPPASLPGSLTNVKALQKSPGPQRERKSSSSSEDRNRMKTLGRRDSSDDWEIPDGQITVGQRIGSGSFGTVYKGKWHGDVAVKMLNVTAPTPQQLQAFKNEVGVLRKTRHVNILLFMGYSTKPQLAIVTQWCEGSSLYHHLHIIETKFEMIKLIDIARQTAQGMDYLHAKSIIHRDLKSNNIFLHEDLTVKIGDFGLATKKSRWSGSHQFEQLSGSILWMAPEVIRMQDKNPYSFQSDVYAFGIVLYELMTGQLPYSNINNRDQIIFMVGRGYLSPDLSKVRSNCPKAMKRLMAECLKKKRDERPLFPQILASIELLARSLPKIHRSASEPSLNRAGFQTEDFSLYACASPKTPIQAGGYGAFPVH
Chain of full-length FLAG-tagged B-Raf(V600E) (P15056 whole entry V600E): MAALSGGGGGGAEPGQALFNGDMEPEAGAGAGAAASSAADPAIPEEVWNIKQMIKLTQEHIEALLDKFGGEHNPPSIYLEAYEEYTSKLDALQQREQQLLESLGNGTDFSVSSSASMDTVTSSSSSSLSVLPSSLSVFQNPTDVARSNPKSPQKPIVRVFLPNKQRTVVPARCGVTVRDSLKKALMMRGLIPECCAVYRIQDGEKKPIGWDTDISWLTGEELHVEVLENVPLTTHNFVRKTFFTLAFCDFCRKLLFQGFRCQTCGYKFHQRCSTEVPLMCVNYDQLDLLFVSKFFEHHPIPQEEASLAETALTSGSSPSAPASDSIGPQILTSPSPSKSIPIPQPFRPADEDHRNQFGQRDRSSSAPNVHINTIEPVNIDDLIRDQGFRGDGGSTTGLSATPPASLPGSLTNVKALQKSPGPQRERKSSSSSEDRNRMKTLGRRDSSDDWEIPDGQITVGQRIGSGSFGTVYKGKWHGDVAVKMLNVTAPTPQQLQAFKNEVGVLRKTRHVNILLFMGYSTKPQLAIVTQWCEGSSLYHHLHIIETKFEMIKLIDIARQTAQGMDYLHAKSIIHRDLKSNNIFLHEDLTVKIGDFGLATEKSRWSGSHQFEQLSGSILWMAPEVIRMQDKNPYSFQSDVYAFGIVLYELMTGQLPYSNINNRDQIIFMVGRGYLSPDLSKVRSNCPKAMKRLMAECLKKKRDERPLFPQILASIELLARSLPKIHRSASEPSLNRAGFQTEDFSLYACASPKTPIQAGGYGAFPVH
Chain of BCRP (Q9UNQ0 whole entry, species assumed): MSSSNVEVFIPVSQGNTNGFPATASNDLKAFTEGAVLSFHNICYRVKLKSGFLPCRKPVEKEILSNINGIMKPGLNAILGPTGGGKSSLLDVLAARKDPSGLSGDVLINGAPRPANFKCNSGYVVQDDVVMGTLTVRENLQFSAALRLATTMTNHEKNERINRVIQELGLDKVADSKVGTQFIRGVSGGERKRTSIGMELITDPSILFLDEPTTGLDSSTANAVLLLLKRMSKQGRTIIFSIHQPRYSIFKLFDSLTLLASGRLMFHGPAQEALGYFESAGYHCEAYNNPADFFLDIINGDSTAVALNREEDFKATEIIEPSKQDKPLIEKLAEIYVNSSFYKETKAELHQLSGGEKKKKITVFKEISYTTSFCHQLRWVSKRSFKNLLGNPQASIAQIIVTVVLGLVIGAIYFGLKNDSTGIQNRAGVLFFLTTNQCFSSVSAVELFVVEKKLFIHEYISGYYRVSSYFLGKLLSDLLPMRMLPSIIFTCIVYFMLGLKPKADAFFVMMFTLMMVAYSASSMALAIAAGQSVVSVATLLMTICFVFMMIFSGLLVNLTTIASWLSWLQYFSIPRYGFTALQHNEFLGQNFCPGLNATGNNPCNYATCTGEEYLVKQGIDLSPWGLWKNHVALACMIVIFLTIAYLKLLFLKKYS

For the compound `CCCS(=O)(=O)Nc1ccc(F)c(Nc2ccc3ncn(C)c(=O)c3c2C)c1F` [Example 1, N-(3-((3,5-dimethyl-4-oxo-3,4-dihydroquinazolin-6-yl)amino)-2,4-difluorophenyl)propane-1-sulfonamide], in series [1], the Kp,uu (unbound brain/unbound plasma ratio) was 0.3 to 0.62. Further, the figures for the efflux ratio at 2 h, 1 µM in series [2] and in series [5] were 3.4 and 1.68, respectively. For the same compound, the values for the IC50 in series [3] and in series [4] were 42.7 nM and 8.5 nM, respectively. Also, the Papp at 2 h, 1 µM in series [6] amounted to 349 nm/s.

In the case of `Cc1c(Nc2cccc(NS(=O)(=O)CCCF)c2Cl)ccc2ncn(C)c(=O)c12` [Example 4], the Kp,uu (unbound brain/unbound plasma ratio) in series [1] was in the range of 0.35 to 1.6. Also, the efflux ratio at 2 h, 1 µM was found to be 1.85 in series [2] and 1.14 in series [5]. Also, the IC50 in series [3] is 16.1 nM; in series [4], 8.1 nM. Further, the Papp at 2 h, 1 µM in series [6] worked out at 346 nm/s.

Turning to `CCCS(=O)(=O)Nc1cc(F)c(F)c(Nc2ccc3ncn(C)c(=O)c3c2C)c1Cl` [Example 7, N-(2-chloro-3-((3,5-dimethyl-4-oxo-3,4-dihydroquinazolin-6-yl)amino)-4,5-difluorophenyl)propane-1-sulfonamide], the Kp,uu (unbound brain/unbound plasma ratio) in series [1] was 0.87 to 1.19. The efflux ratio at 2 h, 1 µM is 1.64 in series [2] and 1.3 in series [5]. For the same compound, the IC50 in series [3] is 1.3 nM; in series [4] it was 2.2 nM. This compound came in with a Papp at 2 h, 1 µM in series [6] of 263 nm/s.

In the case of `CCCS(=O)(=O)Nc1ccc(F)c(Nc2ccc3ncn(C)c(=O)c3c2C)c1Cl` [Example 9, N-(2-chloro-3-((3,5-dimethyl-4-oxo-3,4-dihydroquinazolin-6-yl)amino)-4-fluorophenyl)propane-1-sulfonamide], in series [1], the Kp,uu (unbound brain/unbound plasma ratio) lay in the range of 0.76 to 1.04. Moreover, the efflux ratio at 2 h, 1 µM in series [2] turned out to be 1.23; in series [5], 1.26. Also, the IC50 in series [3] turned out to be 19.7 nM; in series [4] it was 6.5 nM. Moreover, the Papp at 2 h, 1 µM in series [6] came out at 278 nm/s.

On to `Cc1c(Oc2c(F)ccc(NS(=O)(=O)CCCF)c2Cl)ccc2ncn(C)c(=O)c12` [Example 67, N-{2-chloro-3-[(3,5-dimethyl-4-oxo-3,4-dihydroquinazolin-6-yl)oxy]-4-fluorophenyl}-3-fluoropropane-1-sulfonamide], for which the Kp,uu (unbound brain/unbound plasma ratio) in series [1] lay in the range of 0.4 to 0.49. The efflux ratio at 2 h, 1 µM in series [2] and in series [5] was 1.8 in each case. Moreover, the results for the IC50 in series [3] and in series [4] were 2 nM and 2.8 nM, respectively. In series [6], this compound returned a Papp at 2 h, 1 µM of 276 nm/s.

In the case of `CCCS(=O)(=O)Nc1cc(Cl)cc(Oc2ccc3ncn(C)c(=O)c3c2C)c1F` [Example 70, N-(5-chloro-3-((3,5-dimethyl-4-oxo-3,4-dihydroquinazolin-6-yl)oxy)-2-fluorophenyl) propane-1-sulfonamide], the efflux ratio at 2 h, 1 µM in series [2] was 1.17; in series [5], 1.73. In series [3], this compound registered an IC50 of 2.55 nM. The compound further gave a Papp at 2 h, 1 µM in series [6] of 191 nm/s.

For `CCCS(=O)(=O)Nc1ccc(F)c(Oc2ccc3ncn(C)c(=O)c3c2C)c1F` [Example 71, N-(3-((3,5-dimethyl-4-oxo-3,4-dihydroquinazolin-6-yl)oxy)-2,4-difluorophenyl)propane-1-sulfonamide], the efflux ratio at 2 h, 1 µM came out at 0.86 in series [2] and 2.4 in series [5]. In series [3], this compound registered an IC50 of 16.4 nM. This compound also returned a Papp at 2 h, 1 µM in series [6] of 251 nm/s.

`CCCS(=O)(=O)Nc1cc(F)c(F)c(Oc2ccc3ncn(C)c(=O)c3c2C)c1F` [Example 72, N-(3-((3,5-dimethyl-4-oxo-3,4-dihydroquinazolin-6-yl)oxy)-2,4,5-trifluorophenyl)propane-1-sulfonamide]: the efflux ratio at 2 h, 1 µM was found to be 1.81 in series [2] and 1.86 in series [5]. This compound also displayed an IC50 in series [3] of 7.7 nM. For the same compound, the Papp at 2 h, 1 µM in series [6] stood at 256 nm/s.

For the compound `CCCS(=O)(=O)Nc1cc(F)c(F)c(Oc2ccc3ncn(C)c(=O)c3c2C)c1Cl` [Example 73, N-(2-chloro-3-((3,5-dimethyl-4-oxo-3,4-dihydroquinazolin-6-yl)oxy)-4,5-difluorophenyl)propane-1-sulfonamide], the results for the efflux ratio at 2 h, 1 µM in series [2] and in series [5] were 0.3 and 0.93, respectively. In series [3], this compound returned an IC50 of 1.55 nM. In addition, the Papp at 2 h, 1 µM in series [6] was determined as 475 nm/s.

In the case of `CCCS(=O)(=O)Nc1cc(F)cc(Oc2ccc3ncn(C)c(=O)c3c2C)c1Cl` [Example 74, N-(2-chloro-3-((3,5-dimethyl-4-oxo-3,4-dihydroquinazolin-6-yl)oxy)-5-fluorophenyl)propane-1-sulfonamide], the efflux ratio at 2 h, 1 µM amounted to 0.92 in series [2] and 1.13 in series [5]. This compound also came in with an IC50 in series [3] of 3.55 nM. The compound further came in with a Papp at 2 h, 1 µM in series [6] of 284 nm/s.

With `CCCS(=O)(=O)Nc1cc(C)cc(Oc2ccc3ncn(C)c(=O)c3c2C)c1F` [Example 75, N-(3-((3,5-dimethyl-4-oxo-3,4-dihydroquinazolin-6-yl)oxy)-2-fluoro-5-methylphenyl)propane-1-sulfonamide], the efflux ratio at 2 h, 1 µM came out at 0.73 in series [2] and 1.57 in series [5]. Besides, the IC50 in series [3] came out at 74.8 nM. This compound returned a Papp at 2 h, 1 µM in series [6] of 215 nm/s.

For `CCCS(=O)(=O)Nc1cc(F)cc(Oc2ccc3ncn(C)c(=O)c3c2C)c1F` [Example 76, N-(3-((3,5-dimethyl-4-oxo-3,4-dihydroquinazolin-6-yl)oxy)-2,5-difluorophenyl)propane-1-sulfonamide], the efflux ratio at 2 h, 1 µM was found to be 1.26 in series [2] and 1.45 in series [5]. In addition, the IC50 in series [3] is 5.1 nM. For the same compound, the Papp at 2 h, 1 µM in series [6] amounted to 318 nm/s.

As to `Cc1c(Oc2cc(F)cc(NS(=O)(=O)CCCF)c2F)ccc2ncn(C)c(=O)c12` [Example 77, N-(3-((3,5-dimethyl-4-oxo-3,4-dihydroquinazolin-6-yl)oxy)-2,5-difluorophenyl)-3-fluoropropane-1-sulfonamide], the values for the efflux ratio at 2 h, 1 µM in series [2] and in series [5] were 4.24 and 1.91, respectively. Further, the IC50 in series [3] amounted to 4.25 nM. Moreover, the Papp at 2 h, 1 µM in series [6] was 256 nm/s.

Regarding `CCCS(=O)(=O)Nc1cccc(Oc2ccc3ncn(C)c(=O)c3c2C)c1Cl` [Example 78, N-(2-chloro-3-((3,5-dimethyl-4-oxo-3,4-dihydroquinazolin-6-yl)oxy)phenyl)propane-1-sulfonamide], the efflux ratio at 2 h, 1 µM in series [2] was determined as 0.96; in series [5], 1.16. The same compound had an IC50 in series [3] of 10.8 nM. In series [6], this compound came in with a Papp at 2 h, 1 µM of 290 nm/s.

In the case of `Cc1c(Oc2cccc(NS(=O)(=O)CCCF)c2Cl)ccc2ncn(C)c(=O)c12` [Example 79, N-(2-chloro-3-((3,5-dimethyl-4-oxo-3,4-dihydroquinazolin-6-yl)oxy)phenyl)-3-fluoropropane-1-sulfonamide], the efflux ratio at 2 h, 1 µM in series [2] came out at 1.06; in series [5] it was 2.14. For the same compound, the IC50 in series [3] was 8.55 nM. Also, the Papp at 2 h, 1 µM in series [6] turned out to be 231 nm/s.

For `Cc1c(Oc2cccc(NS(=O)(=O)CCCF)c2F)ccc2ncn(C)c(=O)c12` [Example 80, N-(3-((3,5-dimethyl-4-oxo-3,4-dihydroquinazolin-6-yl)oxy)-2-fluorophenyl)-3-fluoropropane-1-sulfonamide], the efflux ratio at 2 h, 1 µM is 2.03 in series [2] and 1.3 in series [5]. The compound further displayed an IC50 in series [3] of 20.8 nM. The compound also displayed a Papp at 2 h, 1 µM in series [6] of 425 nm/s.

As to `Cn1cnc2ccc(Nc3c(F)ccc(NS(=O)(=O)CCCF)c3Cl)c(Cl)c2c1=O` [WO 2012/118492 Ex. 37, reference compound], the Kp,uu (unbound brain/unbound plasma ratio) in series [1] is 0.12 to 0.15. The efflux ratio at 2 h, 1 µM is 8.6 in series [2] and 1.9 in series [5].

With `Cn1cnc2ccc(Nc3c(F)ccc(NS(=O)(=O)CCCF)c3Cl)cc2c1=O` [WO 2012/118492 Example 34, reference compound], the Kp,uu (unbound brain/unbound plasma ratio) in series [1] fell in the range of 0.08 to 0.14. Further, the efflux ratio at 2 h, 1 µM in series [2] is 7.68; in series [5], 8.89.

As a reminder, the efflux ratio is a quotient of directional permeabilities that is used to spot active efflux. By IC50 is commonly meant the midpoint of a concentration-inhibition curve. Read a low IC50 as higher potency. For orientation: Papp means a coefficient for how fast a substance crosses the barrier.
